Molecular target: T1, NLRP3 inflammasome (Homo sapiens, UniProt Q96P20)
T1 construct: endogenous in cells; host or cells: THP-1 cells (PMA-differentiated, LPS-primed, nigericin-stimulated)
Assay: THP-1 Cell-Based NLRP3 Activation Assay
Settings: THP-1 cells, PMA, 100 ng/mL LPS 3 hrs, 30 min pre-incubation with test compound, 10 μM nigericin 1 hr
Description: THP-1 cells are cultured in complete media (CM) until they reach logarithmic growth and achieve a viability >90%. CM is composed of RPMI-1640 (+Glutamax)/10% fetal bovine serum/55 μM β-mercaptoethanol/pen/strep. Cells are spun down and resuspended to 1,000,000 cells/mL in CM containing either 20 nM or 500 nM PMA. 150,000 cells […] are then added to each well of a 96-well TC plate and incubated for either 24 hr or 3 hr, respectively, in a standard cell culture incubator (37° C.; 5% CO2). After this incubation, the plate is tilted and media carefully removed. 200 μL of CM containing 100 ng/mL LPS is then added to the wells and the cells incubated an additional 3 hrs. The media is again removed and replaced with Opti-Mem medium containing pre-determined dilutions of test compounds in replicate wells. After a 30 min pre-incubation with test compound, 10 μM nigericin (final concentration) in Opti-Mem medium with the corresponding concentration of compound is added to the wells for an additional 1 hr. Positive control wells contain 10 μM nigericin in Opti-Mem in the absence of test compound, while negative control wells contain Opti-Mem only. […] Once supernatants are removed, the relative viability of adherent cells in the 96-well TC plate are determined using a CellTiter-Glo® luminescent cell viability assay (Promega).

T1 sequence (Q96P20 whole entry): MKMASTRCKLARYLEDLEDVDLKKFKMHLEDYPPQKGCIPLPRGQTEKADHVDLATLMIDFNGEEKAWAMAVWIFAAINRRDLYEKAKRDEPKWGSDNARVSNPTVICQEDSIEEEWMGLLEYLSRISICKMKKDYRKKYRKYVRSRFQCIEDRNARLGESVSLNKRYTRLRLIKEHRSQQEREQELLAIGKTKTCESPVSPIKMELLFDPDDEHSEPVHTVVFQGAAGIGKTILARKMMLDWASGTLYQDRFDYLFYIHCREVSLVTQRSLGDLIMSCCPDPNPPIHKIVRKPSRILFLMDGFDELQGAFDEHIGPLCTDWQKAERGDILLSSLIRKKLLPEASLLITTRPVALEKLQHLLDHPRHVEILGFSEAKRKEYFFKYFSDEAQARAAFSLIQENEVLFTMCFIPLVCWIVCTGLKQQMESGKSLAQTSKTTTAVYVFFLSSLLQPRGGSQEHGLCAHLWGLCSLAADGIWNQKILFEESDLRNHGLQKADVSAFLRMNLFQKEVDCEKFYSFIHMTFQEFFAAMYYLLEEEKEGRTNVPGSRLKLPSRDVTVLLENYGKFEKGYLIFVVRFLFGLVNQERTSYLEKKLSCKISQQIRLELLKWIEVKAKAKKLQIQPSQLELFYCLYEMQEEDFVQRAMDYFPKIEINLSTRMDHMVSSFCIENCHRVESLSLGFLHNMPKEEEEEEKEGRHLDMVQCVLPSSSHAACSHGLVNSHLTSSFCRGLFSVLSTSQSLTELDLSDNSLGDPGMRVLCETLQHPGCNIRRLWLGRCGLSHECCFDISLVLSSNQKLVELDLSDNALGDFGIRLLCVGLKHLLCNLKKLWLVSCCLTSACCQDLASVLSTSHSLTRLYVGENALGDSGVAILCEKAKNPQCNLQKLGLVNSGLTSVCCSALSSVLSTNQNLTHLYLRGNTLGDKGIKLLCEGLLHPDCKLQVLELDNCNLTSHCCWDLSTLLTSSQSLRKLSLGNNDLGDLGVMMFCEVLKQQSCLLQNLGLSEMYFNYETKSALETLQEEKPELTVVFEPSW

**Q.** For `Cc1nc(C)c2cn[nH]c2c1CN(C)C(=O)c1cc(F)c(-c2cccc(Cl)c2)c(OC2CC2)c1` [Compound 120], which IC50 is on record?
**A.** < 1000 nM

**Q.** `CN(Cc1cc(O)cc2cn[nH]c12)C(=O)c1cc(F)c(-c2cccc(C#N)c2)c(OC2CC2)c1` [Compound 111] was tested. Which IC50 did it give?
**A.** < 1000 nM

**Q.** For `CCOc1cc(C(=O)N(C)[C@@H](C)c2cccc3cn[nH]c23)ccc1-c1cccc(F)c1` [Compound 059], which IC50 is on record?
**A.** < 1000 nM

**Q.** Which IC50 does the source give for `CN(Cc1cc(O)cc2cn[nH]c12)C(=O)c1cc(F)c(-c2cccc(Cl)c2)c(OC2CC2)c1` [Compound 113] here?
**A.** < 1000 nM

**Q.** `CCOc1cc(C(=O)N(C)[C@@H](C)c2cnc(C)c3cn[nH]c23)ccc1-c1cccc(F)c1` [Compound 049] was tested. Which IC50 did it give?
**A.** < 50000 nM

**Q.** `CN(Cc1cnc(CF)c2cn[nH]c12)C(=O)c1cc(F)c(-c2cccs2)c(OC2CC2)c1` [Compound 105] was tested. Which IC50 did it give?
**A.** < 1000 nM

**Q.** With `CCOc1cc(C(=O)N(C)Cc2cnc(C(C)O)c3cn[nH]c23)ccc1-c1ccc(Cl)s1` (stereo not shown) [Compound 163] as the compound, how does the IC50 read?
**A.** < 1000 nM

**Q.** For `CCOc1cc(C(=O)N(C)Cc2cnc(C(C)O)c3cn[nH]c23)ccc1-c1ccccc1` (stereo not shown) [Compound 031], which IC50 is on record?
**A.** < 1000 nM

**Q.** For `CCOc1cc(C(=O)N(C)[C@H](C)c2cnc(CO)c3cn[nH]c23)ccc1-c1cccc(F)c1` [Compound 159], which IC50 is on record?
**A.** < 1000 nM

**Q.** How did the IC50 turn out when `CCOc1cc(C(=O)N(C)Cc2c(F)c(O)cc3cn[nH]c23)ccc1-c1cccc(F)c1` [Compound 148] was run?
**A.** < 1000 nM

From patent publication US20240116933A1, “INDAZOLE AND PYRAZOLOPYRIDINE COMPOUNDS AS INHIBITORS OF NLRP3 INFLAMMASOME” (BioAge Labs, Inc., priority 2022, published 2024)
